Values joined by “and” are separate entries in the source; they are usually repeats but may differ in a detail not shown here. Equal entries are not always repeated. Toxic doses and inconclusive results are not listed.

In this test the test system is BDF1 mice, P388 leukemia ip, median survival T/C. Put plainly: NCI In Vivo Anticancer Drug Screen. Data for tumor model P388 Leukemia (intraperitoneal) in B6D2F1 (BDF1) mice. The note with it: endpoint: median survival time, higher = longer survival. The gist of the method: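 Steps: implant the tumour, treat one group with compound and another with vehicle, record survival, then divide treated by control.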

[1] abbreviates: dose: 100.0 mg/kg/injection, schedule: Q01DX009 (ip), vehicle: Klucel (hydroxypropylcellulose) (HPC).
[2] abbreviates: dose: 100.0 mg/kg/injection, schedule: Q04DX003 (ip), vehicle: Klucel (hydroxypropylcellulose) (HPC).
Where [3] appears, read: dose: 200.0 mg/kg/injection, schedule: Q01DX009 (ip), vehicle: Klucel (hydroxypropylcellulose) (HPC).
[4] abbreviates: dose: 400.0 mg/kg/injection, schedule: Q01DX009 (ip), vehicle: Klucel (hydroxypropylcellulose) (HPC).
Where [5] appears, read: dose: 400.0 mg/kg/injection, schedule: Q04DX003 (ip), vehicle: Klucel (hydroxypropylcellulose) (HPC).
[6] abbreviates: dose: 100.0 mg/kg/injection, schedule: Q04DX003 (ip), vehicle: saline with Tween-80.
The mark [7] stands for this setting: dose: 200.0 mg/kg/injection, schedule: Q04DX003 (ip), vehicle: saline with Tween-80.
Setting [8] is: dose: 400.0 mg/kg/injection, schedule: Q04DX003 (ip), vehicle: saline with Tween-80.
Where [9] appears, read: dose: 100.0 mg/kg/injection, schedule: Q01DX009 (ip), vehicle: saline.
Setting [10] is: dose: 50.0 mg/kg/injection, schedule: Q04DX003 (ip), vehicle: water.

Consider `COc1cc2cc(c1Cl)N(C)C(=O)/C=C/C1(C)OC1C(C)C1CC(O)(NC(=O)O1)C(OC)C=C/C=C(\C)C2` (stereo not given), for which the T/C was 90 % of control (dose: 0.2 micrograms/kg/injection, schedule: Q01DX009 (ip), vehicle: saline + alcohol); 90 % of control (dose: 0.4 micrograms/kg/injection, schedule: Q01DX009 (ip), vehicle: saline + alcohol); 90 % of control (dose: 0.8 micrograms/kg/injection, schedule: Q01DX009 (ip), vehicle: saline + alcohol); 90 % of control (dose: 1.6 micrograms/kg/injection, schedule: Q01DX009 (ip), vehicle: saline + alcohol); 90 % of control (dose: 3.1 micrograms/kg/injection, schedule: Q01DX009 (ip), vehicle: saline + alcohol); 110 % of control (dose: 100.0 micrograms/kg/injection, schedule: Q01DX009 (ip), vehicle: saline + alcohol).

For `c1ccc2n[se]nc2c1`, the T/C is, setting by setting: (dose: 1.56 mg/kg/injection, schedule: Q04DX003 (ip), vehicle: saline) 108 % of control; (dose: 3.13 mg/kg/injection, schedule: Q04DX003 (ip), vehicle: saline) 108 % of control and 109 % of control; (dose: 6.25 mg/kg/injection, schedule: Q04DX003 (ip), vehicle: saline) 106 % of control and 109 % of control; (dose: 12.5 mg/kg/injection, schedule: Q04DX003 (ip), vehicle: saline) 104 % of control.

As for `O=C(OCC#CC#CCOC(=O)c1ccccc1)c1ccccc1`, the T/C runs as follows: under setting [1], 104 % of control; under setting [2], 100 % of control; under setting [3], 113 % of control; (dose: 200.0 mg/kg/injection, schedule: Q04DX003 (ip), vehicle: Klucel (hydroxypropylcellulose) (HPC)) 90 % of control; under setting [4], 104 % of control; under setting [5], 109 % of control.

As for `O=C(C(Br)C(Br)c1ccccc1)N1CCOCC1` (stereo not given), the T/C was 104 % of control (dose: 100.0 mg/kg/injection, schedule: Q04DX003 (ip), vehicle: saline sonified); 100 % of control (dose: 200.0 mg/kg/injection, schedule: Q04DX003 (ip), vehicle: saline sonified); 113 % of control (dose: 400.0 mg/kg/injection, schedule: Q04DX003 (ip), vehicle: saline sonified).

On to `COC(=O)c1cncc(C(=O)OC)c1`, for which the T/C under setting [6] was 100 % of control; the T/C (dose: 176.0 mg/kg/injection, schedule: Q04DX003 (ip), vehicle: saline with Tween-80) was 100 % of control; the T/C under setting [7] was 95 % of control; the T/C (dose: 264.0 mg/kg/injection, schedule: Q04DX003 (ip), vehicle: saline with Tween-80) was 100 % of control; the T/C under setting [8] is 100 % of control.

With `N#C[SH2+].N#C[SH2+].N#C[SH2+].N#C[SH2+].[Cu+2].c1ccc(C[P+](c2ccccc2)(c2ccccc2)c2ccccc2)cc1`, the T/C (dose: 100.0 mg/kg/injection, schedule: Q01DX001 (ip), vehicle: saline with Tween-80) is 100 % of control.

For the compound `CC1(C)N=C(N)N=C(N)N1c1ccc(OCC(=O)N2CCOCC2)c(Cl)c1`, the T/C (dose: 66.0 mg/kg/injection, schedule: Q01DX009 (ip), vehicle: saline) is 107 % of control; the T/C (dose: 100.0 mg/kg/injection, schedule: Q01DX009 (ip), vehicle: saline sonified) was 172 % of control; the T/C under setting [9] was 103 % of control; the T/C (dose: 150.0 mg/kg/injection, schedule: Q01DX009 (ip), vehicle: saline) was 111 % of control.

For the compound `COc1ccc(-n2c(=O)c(N=Nc3ccccc3)c(O)n(-c3ccc(C)cc3)c2=S)cc1`, the T/C runs as follows: (dose: 50.0 mg/kg/injection, schedule: Q01DX001 (ip), vehicle: saline sonified) 90 % of control; (dose: 100.0 mg/kg/injection, schedule: Q01DX001 (ip), vehicle: saline sonified) 100 % of control; (dose: 200.0 mg/kg/injection, schedule: Q01DX001 (ip), vehicle: saline sonified) 100 % of control.

Regarding `CNC(=O)OCc1c(-c2ccccc2)nc2sccn12`, the T/C reads like this: (dose: 12.5 mg/kg/injection, schedule: Q01DX001 (ip), vehicle: Klucel (hydroxypropylcellulose) (HPC)) 109 % of control; (dose: 25.0 mg/kg/injection, schedule: Q01DX001 (ip), vehicle: Klucel (hydroxypropylcellulose) (HPC)) 113 % of control.

As for `COC(=O)C(CSCSC)NC(=O)/C=C/c1ccc(C)cc1` (stereo not given), the T/C is, setting by setting: (dose: 50.0 mg/kg/injection, schedule: Q01DX009 (ip), vehicle: saline with Tween-80) 109 % of control; (dose: 100.0 mg/kg/injection, schedule: Q01DX009 (ip), vehicle: saline with Tween-80) 109 % of control; under setting [6], 91 % of control; (dose: 200.0 mg/kg/injection, schedule: Q01DX009 (ip), vehicle: saline with Tween-80) 92 % of control; under setting [7], 91 % of control; (dose: 400.0 mg/kg/injection, schedule: Q01DX009 (ip), vehicle: saline with Tween-80) 100 % of control. Moreover, under setting [8], the T/C was 88 % of control.

On to `COc1ccc(C=O)c(O)c1`, for which the T/C is, setting by setting: under setting [1], 90 % of control; under setting [2], 92 % of control; under setting [3], 104 % of control; under setting [4], 90 % of control; under setting [5], 96 % of control.

Regarding `Nc1nc(N)c2cc(N3CCCC3c3ccc(Cl)cc3)ccc2n1` (stereo not given), the T/C reads like this: (dose: 3.12 mg/kg/injection, schedule: Q01DX009 (ip), vehicle: saline) 109 % of control; (dose: 12.5 mg/kg/injection, schedule: Q01DX009 (ip), vehicle: saline) 89 % of control; (dose: 12.5 mg/kg/injection, schedule: Q04DX003 (ip), vehicle: water) 92 % of control; (dose: 25.0 mg/kg/injection, schedule: Q04DX003 (ip), vehicle: water) 111 % of control; under setting [10], 115 % of control.

Turning to `COC1CCCCC1Br` (stereo not given), the T/C is, setting by setting: under setting [9], 113 % of control; (dose: 200.0 mg/kg/injection, schedule: Q01DX009 (ip), vehicle: saline) 109 % of control; (dose: 400.0 mg/kg/injection, schedule: Q01DX009 (ip), vehicle: saline) 104 % of control.

`C[n+]1c(-c2ccccc2)c2cc(N)ccc2c2ccccc21`: the T/C by setting is: (dose: 3.1 mg/kg/injection, schedule: Q04DX003 (ip), vehicle: saline) 110 % of control; (dose: 6.6 mg/kg/injection, schedule: Q01DX009 (ip), vehicle: saline) 153 % of control; (dose: 10.0 mg/kg/injection, schedule: Q01DX009 (ip), vehicle: saline) 165 % of control and 181 % of control; (dose: 10.0 mg/kg/injection, schedule: Q04DX003 (ip), vehicle: saline) 122 % of control.

Turning to `C(#C[P+]1(c2ccccc2)C=C(c2ccccc2)OC(c2ccccc2)=C1)c1ccccc1`, the T/C (dose: 50.0 mg/kg/injection, schedule: Q01DX005 (ip), vehicle: saline with Tween-80) is 110 % of control.

Take `COc1ccc2c(c1)NC(c1ccccc1C(=O)O)c1cccn1-2` (stereo not given): the T/C runs as follows: (dose: 6.25 mg/kg/injection, schedule: Q01DX009 (ip), vehicle: saline with Tween-80) 90 % of control; (dose: 12.5 mg/kg/injection, schedule: Q01DX009 (ip), vehicle: saline with Tween-80) 97 % of control; (dose: 25.0 mg/kg/injection, schedule: Q01DX009 (ip), vehicle: saline with Tween-80) 97 % of control.

Consider `[O-][n+]1ccccc1Br`, for which the T/C under setting [10] was 91 % of control and the T/C (dose: 100.0 mg/kg/injection, schedule: Q04DX003 (ip), vehicle: water) was 91 % of control.

Consider `N#CC1c2ccccc2C=NN1C(=O)N(c1ccccc1)c1ccccc1` (stereo not given), for which the T/C runs as follows: (dose: 100.0 mg/kg/injection, schedule: Q04DX003 (ip), vehicle: other) 90 % of control; (dose: 200.0 mg/kg/injection, schedule: Q04DX003 (ip), vehicle: other) 100 % of control; (dose: 400.0 mg/kg/injection, schedule: Q04DX003 (ip), vehicle: other) 100 % of control.

As to `C[S+](C)CCCNC(=O)c1csc(-c2csc(CCNC(=O)c3ccccc3)n2)n1`, the T/C reads like this: (dose: 8.0 mg/kg/injection, schedule: Q01DX009 (ip), vehicle: saline) 90 % of control; (dose: 16.0 mg/kg/injection, schedule: Q01DX009 (ip), vehicle: saline) 100 % of control; (dose: 32.0 mg/kg/injection, schedule: Q01DX009 (ip), vehicle: saline) 95 % of control.

Source of the values: PubChem BioAssay AID328 (DTP/NCI, 2004).
